Experimental data reported in US4668680A, “5-amino-6,8-difluoroquinolones as antibacterial agents” (Warner-Lambert Company, priority 1985, dated 1987).
In brackets after ≈: the same amount, converted by molar mass. Read-outs that look alike come from different tables or passages of the source.

Experiments:
Test in all cases: in vitro antibacterial activity, microtitration dilution method
Assay type in all cases: cell-based
[1] = system: Enterobacter cloacae MA 2646; conditions: MA2646, read-out: Minimal Inhibitory Concentration MIC
[2] = system: Staphylococcus aureus H 228
Text: (§1) The compounds of the invention display antibacterial activity as shown in the following table when tested by the microtitration dilution method as described in Heifetz, et al, Antimicr. Agents & Chemoth., 6, 124 (1974), which is incorporated herein by reference. […]

[3] = system: Streptococcus pneumonia SV-1; conditions: Streptococcus pneumoniae
Text: as §1

[4] = system: Staphylococcus aureus UC-76
Text: as §1

[5] = system: Klebsiella pneumoniae MGH-2
Text: as §1

Escherichia coli Vogel = conditions: read-out: Minimal Inhibitory Concentration MIC
Text: as §1

[6] = system: Streptococcus pyogenes C-203
Text: as §1

[7] = system: Pseudomonas aeruginosa UI-18
Text: as §1

Proteus rettgeri M 1771 = conditions: Providencia rettgeri
Text: as §1

[8] = system: Streptococcus faecalis MGH-2; conditions: Enterococcus faecalis
Text: as §1

[9] = H228, Staphylococcus aureus H 228, read-out: Minimal Inhibitory Concentration MIC
[10] = SV1, Streptococcus pneumonia SV-1, read-out: Minimal Inhibitory Concentration MIC
[11] = UC76, Staphylococcus aureus UC-76, read-out: Minimal Inhibitory Concentration MIC
[12] = MGH2, Klebsiella pneumoniae MGH-2, read-out: Minimal Inhibitory Concentration MIC
[13] = C203, Streptococcus pyogenes C-203, read-out: Minimal Inhibitory Concentration MIC
[14] = UI18, Pseudomonas aeruginosa UI-18, read-out: Minimal Inhibitory Concentration MIC
[15] = M1771, Proteus rettgeri M 1771, read-out: Minimal Inhibitory Concentration MIC
[16] = MGH2, Streptococcus faecalis MGH-2, read-out: Minimal Inhibitory Concentration MIC

SMILES	MIC [1]	MIC [2, 9]	MIC [3, 10]	MIC [4, 11]	MIC [5, 12]	MIC (Escherichia coli Vogel)	MIC [6, 13]	MIC [7, 14]	MIC (Proteus rettgeri M 1771; [15])	MIC [8, 16]	MIC ([2]; Staphylococcus aureus, H228, read-out: Minimal Inhibitory Concentration MIC)	MIC ([3]; SV1, read-out: Minimal Inhibitory Concentration MIC)	MIC ([4]; Staphylococcus aureus, UC76, read-out: Minimal Inhibitory Concentration MIC)	MIC ([5]; Klebsiella pneumoniae, MGH2, read-out: Minimal Inhibitory Concentration MIC)	MIC ([6]; Streptococcus pyogenes, C203, read-out: Minimal Inhibitory Concentration MIC)	MIC ([7]; Pseudomonas aeruginosa, UI18, read-out: Minimal Inhibitory Concentration MIC)	MIC (Proteus rettgeri M 1771; M1771, read-out: Minimal Inhibitory Concentration MIC)	MIC ([8]; MGH2, read-out: Minimal Inhibitory Concentration MIC)
CN1CCN(c2c(F)c(N)c3c(=O)c(C(=O)O)cn(C4CC4)c3c2F)CC1 [Ex. 2, 5-Amino-1-cyclopropyl-6,8-difluoro-1,4-dihydro-7-(4-methyl-1-piperazinyl)-4-oxo-3-quinolinecarboxylic acid]	0.013 µg/mL (≈ 0.0344 µM)	0.05 µg/mL (≈ 0.132 µM)	0.2 µg/mL (≈ 0.529 µM)	0.025 µg/mL (≈ 0.0661 µM)	0.013 µg/mL (≈ 0.0344 µM)	0.013 µg/mL (≈ 0.0344 µM)	0.4 µg/mL (≈ 1.06 µM)	0.1 µg/mL (≈ 0.264 µM)	0.05 µg/mL (≈ 0.132 µM)	0.1 µg/mL (≈ 0.264 µM)	–	–	–	–	–	–	–	–
O=C(O)c1cn(C2CC2)c2cc(N3CCNCC3)c(F)cc2c1=O [Ciprofloxacin, 1-cyclopropyl-6-fluoro-1,4-dihydro-4-oxo-7-piperazinyl-3-quinoline-carboxylic acid, reference compound]	–	–	–	–	–	0.05 µg/mL (≈ 0.151 µM)	–	–	–	–	3.1 µg/mL (≈ 9.36 µM)	1.6 µg/mL (≈ 4.83 µM)	0.2 µg/mL (≈ 0.604 µM)	0.1 µg/mL (≈ 0.302 µM)	0.8 µg/mL (≈ 2.41 µM)	0.4 µg/mL (≈ 1.21 µM)	0.1 µg/mL (≈ 0.302 µM)	0.8 µg/mL (≈ 2.41 µM)
Nc1c(F)c(N2CCNCC2)c(F)c2c1c(=O)c(C(=O)O)cn2C1CC1 [Ex. 1, 5-amino-1-cyclopropyl-6,8-difluoro-1,4-dihydro-4-oxo-7-(1-piperazinyl)-3-quinolinecarboxylic acid]	0.013 µg/mL (≈ 0.0357 µM)	0.05 µg/mL (≈ 0.137 µM)	0.05 µg/mL (≈ 0.137 µM)	0.013 µg/mL (≈ 0.0357 µM)	0.025 µg/mL (≈ 0.0686 µM)	0.013 µg/mL (≈ 0.0357 µM)	0.2 µg/mL (≈ 0.549 µM)	0.025 µg/mL (≈ 0.0686 µM)	0.05 µg/mL (≈ 0.137 µM)	0.05 µg/mL (≈ 0.137 µM)	–	–	–	–	–	–	–	–
